This note sets out measurements from the Deep4Chem optical property database.

The nature of this data set: photoluminescence quantum yield (fraction); solvent given as SMILES.

Each structure is given as a SMILES string.

Regarding `CCCCN1C(=O)C(=C/C=C/C=C/C=C2N(CCCC)c3ccccc3N2CCCC)C(=O)N(CCCC)C1=S`, the photoluminescence quantum yield was 0.099 (in CC#N); 0.178 (in CCCCCC); 0.074 (in CCO); 0.127 (in CN(C)C=O); 0.056 (in CO); 0.73 (in Cc1ccccc1). The compound also came in with a photoluminescence quantum yield (in ClC(Cl)Cl) of 0.365, a photoluminescence quantum yield (in ClCCl) of 0.266 and a photoluminescence quantum yield (in OCC(F)(F)F) of 0.023.

As to `COC(=O)c1nc2c(N(C)C)nc(N)nc2n1Cc1ccccc1`, the photoluminescence quantum yield reads like this: (in C1COCCO1) 0.95; (in CC#N) 0.83; (in CO) 0.39; (in ClCCl) 0.95.

`Cc1cccc(C)c1N1C(c2ccccc2)=Cc2cccc[n+]2[B-]1(F)F` came in with a photoluminescence quantum yield (in ClCCl) of 0.36.

Regarding `O=c1cc(C(F)(F)F)c2cc3c4c(c2o1)CCCN4CCC3`, the photoluminescence quantum yield (in CCC#N) was 0.76; the photoluminescence quantum yield (in CCCCCCCl) was 0.95; the photoluminescence quantum yield (in CCCCl) was 0.77; the photoluminescence quantum yield (in CCO) came to 0.62; the photoluminescence quantum yield (in OCC(F)(F)F) was found to be 0.47.

As for `COc1ccc(-n2c(C)ccc2C)cc1`, the photoluminescence quantum yield was 0.026 (in CC#N) and 0.024 (in CCCCCC).

`Cc1cc2c(o1)c(C)cc1ccc(=O)oc12` yielded a photoluminescence quantum yield (in C1CCCCC1) of 0.0001; a photoluminescence quantum yield (in C1COCCO1) of 0.0001; a photoluminescence quantum yield (in CC#N) of 0.001; a photoluminescence quantum yield (in CCO) of 0.007; a photoluminescence quantum yield (in OCC(F)(F)F) of 0.03.

`COc1cccc2cc(-c3cc4cccc(OC)c4oc3=O)oc12`: the photoluminescence quantum yield (in CS(C)=O) came to 0.11.

For the compound `CCCCCCCCCCCCOc1cc2c(cc1OCCCCCCCCCCCC)C1=C3C(=O)N4C=Cc5cc(OCCCCCCCCCCCC)c(OCCCCCCCCCCCC)cc5C4=C3C(=O)N1C=C2`, the photoluminescence quantum yield was found to be 0.7 (in CN(C)C=O) and 0.8 (in ClC(Cl)Cl).

Turning to `O=C1c2ccccc2-c2c(-c3cc(Br)ccc3O)[nH]c(=O)n21`, the photoluminescence quantum yield is 0.49 (in CC#N), 0.32 (in CO) and 0.61 (in ClCCl).

Consider `Nc1ccc2cc3ccccc3cc2c1`, for which the photoluminescence quantum yield (in C1CCCCC1) is 0.86.

As for `c1ccc(-n2c(-c3ccc(N(c4ccc(-c5ccc(N(c6ccc(-c7nc8c9ccccc9c9ccccc9c8n7-c7ccccc7)cc6)c6ccc(-c7nc8c9ccccc9c9ccccc9c8n7-c7ccccc7)cc6)cc5)cc4)c4ccc(-c5nc6c7ccccc7c7ccccc7c6n5-c5ccccc5)cc4)cc3)nc3c4ccccc4c4ccccc4c32)cc1`, the photoluminescence quantum yield (in ClCCl) was 0.206.

For the compound `Cc1ccc(C)c(C2=C3C=CC(=[N+](C)C)C=C3[Si](C)(C)c3cc(N(C)C)ccc32)c1`, the photoluminescence quantum yield (in O) was 0.32.

In turn, `CCCCN1C(=O)c2cc(Br)c3c4c(Br)c(Br)c5c6c(cc(Br)c(c7c(Br)c(Br)c(c2c37)C1=O)c64)C(=O)N(CCCC)C5=O` came in with a photoluminescence quantum yield (in ClC(Cl)Cl) of 0.11.

Regarding `C=CCOc1nnc(OCCC(F)(F)C(F)(F)C(F)(F)C(F)(F)C(F)(F)C(F)(F)C(F)(F)C(F)(F)F)nn1`, the photoluminescence quantum yield runs as follows: (in ClCCl) 0.16; (in OCC(F)(F)F) 0.02.

`Fc1ccc(C#Cc2c(C#Cc3ccc(F)cc3)c(C#Cc3ccc(F)cc3)c(C#Cc3ccc(F)cc3)c(C#Cc3ccc(F)cc3)c2C#Cc2ccc(F)cc2)cc1`: under “in ClCCl”, the photoluminescence quantum yield came out at 0.25.

As to `CNc1ncc2nc(C(=O)OC)n(Cc3ccccc3)c2n1`, the photoluminescence quantum yield runs as follows: (in C1COCCO1) 0.65; (in CC#N) 0.66; (in CO) 0.61; (in ClCCl) 0.65.

Compound `COc1ccc(-n2nc(C(=O)c3ccc(Cl)cc3)c(N3CCCC3)n2)cc1` returned a photoluminescence quantum yield (in CC#N) of 0.004.

On to `c1ccc2c(-c3cc(-c4nccs4)nc(-c4nccs4)c3)cccc2c1`, for which the photoluminescence quantum yield by setting is: (in CC#N) 0.33; (in CCCCCC) 0.411; (in CO) 0.207; (in ClC(Cl)Cl) 0.439.

As for `Cc1cc2ccccc2c2c1c1ccccc1n2-c1ncccn1`, the photoluminescence quantum yield (in ClCCl) amounted to 0.

`CCCCCCCCCCCCOc1cc2c3c(ccc4c5c(NC6CCCCC6)cc6c7c(ccc(c1c34)c75)C(=O)N(C1CCCCC1)C6=O)C(=O)N(C1CCCCC1)C2=O` returned a photoluminescence quantum yield (in ClC(Cl)Cl) of 0.01.

Compound `COC(=O)C1=C(C(=O)OC)C2(c3ccccc3-c3ccccc32)[C@@H](c2ccc(C)cc2)C=C2c3cc(OC)c(OC)cc3CCN21` yielded a photoluminescence quantum yield (in ClCCl) of 0.00491.

`CCC(C)(C)c1ccc(-c2ccc(-c3ccccc3)cc2)cc1` showed a photoluminescence quantum yield (in C1COCCO1) of 0.65.

On to `CN(C)c1ccc(-c2c(/C=C3/C=Cc4ccccc4N3Cc3ccccc3)c(=O)c2=O)cc1`, for which the photoluminescence quantum yield (in C1CCCCC1) was 0.0146, the photoluminescence quantum yield (in Cc1ccccc1) worked out at 0.0141 and the photoluminescence quantum yield (in ClCCl) was found to be 0.001.

The compound `CC(C)(C)c1ccc2oc3nc4oc5ccc(N(c6ccccc6)c6ccccc6)cc5c4cc3c2c1` returned a photoluminescence quantum yield (in ClC(Cl)Cl) of 0.083.

Turning to `CCN(CC)c1ccc([N+]2=Cc3ccc4c5c(ccc4c3O[B-]2(c2ccccc2)c2ccccc2)C=[N+](c2ccc(N(CC)CC)cc2)[B-](c2ccccc2)(c2ccccc2)O5)cc1`, the photoluminescence quantum yield was 0.4 (in Cc1ccccc1) and 0.29 (in ClCCl).

As for `COc1cc(OC)cc(C2=[O+][B-](F)(F)OC(c3ccc4cc(OC)ccc4c3)=C2)c1`, the photoluminescence quantum yield runs as follows: (in CC#N) 0.22; (in CC(C)=O) 0.37; (in CCCCCC) 0.26; (in Cc1ccccc1) 0.79; (in ClCCl) 0.95.

`CCCCCCCN1C(=CC2=C([O-])C(=CC3=[N+](CCCCCCC)c4ccccc4C3(C)C)C2=C(C#N)C#N)Sc2ccccc21` displayed a photoluminescence quantum yield (in C1COCCO1) of 0.16, a photoluminescence quantum yield (in CCO) of 0.15, a photoluminescence quantum yield (in CN(C)C=O) of 0.16 and a photoluminescence quantum yield (in ClC(Cl)Cl) of 0.17.

Take `Oc1ccccc1-c1nc(-c2ccccc2)c2ccccn12`: the photoluminescence quantum yield (in ClCCl) turned out to be 0.144.

Regarding `N#Cc1c(-c2ccc(N(c3ccccc3)c3ccccc3)cc2)c(C#N)c(-c2ccc(N(c3ccccc3)c3ccccc3)cc2)c(C#N)c1-c1ccc(N(c2ccccc2)c2ccccc2)cc1`, the photoluminescence quantum yield (in O=P(c1ccccc1)(c1ccccc1)c1ccccc1Oc1ccccc1P(=O)(c1ccccc1)c1ccccc1) was 1.

Under “in Cc1ccccc1”, `c1ccc(-c2nc3ccccc3nc2-c2cc(-n3c4ccccc4c4ccccc43)cc(-n3c4ccccc4c4ccccc43)c2)cc1` showed a photoluminescence quantum yield of 0.19.

As for `COc1ccc(/C=C2\OC(=O)c3cc(N)ccc32)cc1`, the photoluminescence quantum yield reads like this: (in CC#N) 0.38; (in CC(C)=O) 0.21; (in CC(C)CO) 0.44; (in CC(C)O) 0.4; (in CCCO) 0.46; (in CCO) 0.34. For the same compound, the photoluminescence quantum yield (in CCOC(C)=O) was determined as 0.2, the photoluminescence quantum yield (in CCOCC) amounted to 0.11 and the photoluminescence quantum yield (in CO) came out at 0.29.

Compound `CCN(CC)c1ccc2c(c1)oc(=O)c1c(C)nc3c(cnn3-c3ccccc3)c12` registered a photoluminescence quantum yield (in C1CCCCC1) of 0.931; a photoluminescence quantum yield (in CCOC(C)=O) of 0.685; a photoluminescence quantum yield (in CN(C)C=O) of 0.37; a photoluminescence quantum yield (in CO) of 0.294; a photoluminescence quantum yield (in ClCCl) of 0.829.
